Experimental findings from ChEMBL document CHEMBL4725442, “Exception That Proves the Rule: Investigation of Privileged Stereochemistry in Designing Dopamine DR Bitopic Agonists” (ACS Med Chem Lett, 2020) are described below.

Holding throughout (format): cell-based
Assay [1] concerns the target T1, D(1A) dopamine receptor (Homo sapiens, UniProt P21728). The assay is described as follows: Displacement of [3H]-SCH23390 from human D1 receptor expressed in HEK293 cells after 60 mins by microbeta counting based assay. Background: Loss of bound radioactivity is the signal in a displacement assay; it reports binding, not function.
The target in assay [2] is T1, D(1A) dopamine receptor. The assay is described as follows: Displacement of [3H]-SCH23390 from human D1 receptor expressed in HEK293 cells at 100 uM after 60 mins by microbeta counting based assay relative to control.
The target of assay [3] is T2, Mu-type opioid receptor (Homo sapiens, UniProt P35372). The assay is described as follows: Displacement of [3H]-DAMGO from human MOR expressed in HEK293 cells after 60 mins by microbeta counting based assay.
T2 sequence (P35372 whole entry): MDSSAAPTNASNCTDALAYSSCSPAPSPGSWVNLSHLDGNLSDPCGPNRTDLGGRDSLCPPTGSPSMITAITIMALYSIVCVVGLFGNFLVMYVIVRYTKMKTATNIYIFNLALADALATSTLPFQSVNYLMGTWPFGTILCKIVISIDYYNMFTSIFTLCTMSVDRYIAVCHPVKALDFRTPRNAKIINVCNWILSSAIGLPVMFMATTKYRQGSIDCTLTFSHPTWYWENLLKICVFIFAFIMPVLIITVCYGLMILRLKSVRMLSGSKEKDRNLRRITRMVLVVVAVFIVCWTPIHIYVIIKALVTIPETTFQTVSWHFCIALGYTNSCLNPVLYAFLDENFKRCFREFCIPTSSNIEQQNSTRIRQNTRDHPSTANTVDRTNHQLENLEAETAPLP
Assay [4] deals with T2, Mu-type opioid receptor. The assay is described as follows: Displacement of [3H]-DAMGO from human MOR expressed in HEK293 cells at 100 uM after 60 mins by microbeta counting based assay relative to control.
Another assay has as its target D(2) dopamine receptor (Homo sapiens, UniProt P14416). The assay is described as follows: Displacement of [3H]-(R)-(+)-7-OH-DPAT from human D2L receptor expressed in HEK293 cells after 90 mins by microbeta counting based assay.
In the next assay the target is D(3) dopamine receptor (Homo sapiens, UniProt P35462). The assay is described as follows: Displacement of [3H]-(R)-(+)-7-OH-DPAT from human D3 receptor expressed in HEK293 cells after 90 mins by microbeta counting based assay.
D(3) dopamine receptor, sequence (P35462 whole entry): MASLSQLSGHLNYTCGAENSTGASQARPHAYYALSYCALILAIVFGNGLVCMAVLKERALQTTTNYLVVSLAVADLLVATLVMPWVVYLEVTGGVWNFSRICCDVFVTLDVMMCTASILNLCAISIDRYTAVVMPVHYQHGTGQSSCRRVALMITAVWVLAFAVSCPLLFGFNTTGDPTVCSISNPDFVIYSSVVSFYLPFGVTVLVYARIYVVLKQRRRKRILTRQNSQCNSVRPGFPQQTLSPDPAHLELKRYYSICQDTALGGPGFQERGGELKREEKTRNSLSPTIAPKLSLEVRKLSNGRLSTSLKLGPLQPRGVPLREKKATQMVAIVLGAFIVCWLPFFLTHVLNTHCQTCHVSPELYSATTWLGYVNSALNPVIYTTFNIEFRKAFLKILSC

Bounds are passed on as bounds.

T1 sequence (P21728 whole entry): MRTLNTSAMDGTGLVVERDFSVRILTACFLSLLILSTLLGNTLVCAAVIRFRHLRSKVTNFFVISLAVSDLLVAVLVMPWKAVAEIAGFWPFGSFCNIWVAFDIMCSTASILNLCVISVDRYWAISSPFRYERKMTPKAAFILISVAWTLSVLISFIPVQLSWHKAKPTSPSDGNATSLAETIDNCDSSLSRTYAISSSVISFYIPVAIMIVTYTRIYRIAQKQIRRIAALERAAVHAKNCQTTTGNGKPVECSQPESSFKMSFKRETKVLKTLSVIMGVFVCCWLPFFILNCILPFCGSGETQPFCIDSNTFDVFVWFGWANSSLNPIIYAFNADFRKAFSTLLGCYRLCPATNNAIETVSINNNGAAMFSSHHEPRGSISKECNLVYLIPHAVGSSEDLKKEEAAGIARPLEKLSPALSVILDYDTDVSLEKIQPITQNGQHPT
D(2) dopamine receptor, sequence (P14416 whole entry): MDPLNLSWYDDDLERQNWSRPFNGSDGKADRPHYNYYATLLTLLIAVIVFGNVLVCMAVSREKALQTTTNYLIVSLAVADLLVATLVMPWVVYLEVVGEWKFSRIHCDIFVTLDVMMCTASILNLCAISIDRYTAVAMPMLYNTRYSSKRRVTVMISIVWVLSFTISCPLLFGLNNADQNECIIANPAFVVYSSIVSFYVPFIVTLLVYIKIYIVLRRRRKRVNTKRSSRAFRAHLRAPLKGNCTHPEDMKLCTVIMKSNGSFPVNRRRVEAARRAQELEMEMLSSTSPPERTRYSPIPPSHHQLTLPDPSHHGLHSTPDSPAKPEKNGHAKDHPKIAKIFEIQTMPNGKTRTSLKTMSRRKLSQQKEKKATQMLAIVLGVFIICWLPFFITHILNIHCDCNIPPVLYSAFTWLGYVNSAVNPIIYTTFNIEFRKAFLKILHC

In general, Ki refers to the dissociation constant of the complex between target and ligand, obtained from inhibition or displacement. High values mean weaker binding, low ones tighter binding. The inhibition is the share of the control response that was lost under treatment. Low readings indicate little suppression, high ones strong suppression. `C[C@H]1CO[C@@H](c2ccc(N)nc2)CN1CC(O)CCNC(=O)c1cc2ccccc2[nH]1` (stereo partly specified) registered a Ki on D(1A) dopamine receptor [1] above 100 µM. Also, the inhibition at D(1A) dopamine receptor [2] is below 50%.

On D(1A) dopamine receptor [2], `CCCN1CCO[C@@H]2c3cc(O)ccc3OC[C@H]21` gave an inhibition below 50%.

The molecule `CCCN1CCO[C@H]2c3cc(O)ccc3OC[C@@H]21` gave an inhibition at D(1A) dopamine receptor [2] below 50%.

Regarding `CCCN1CC(c2ccc(N)nc2)OC[C@@H]1C` (mixture of isomers), the Ki at D(1A) dopamine receptor [1] and at Mu-type opioid receptor [3] was above 100 µM each time. Further, the inhibition on Mu-type opioid receptor [4] and on D(1A) dopamine receptor [2] was below 50% throughout.

`C[C@H]1CO[C@@H](c2ccc(N)nc2)CN1CC[C@H]1CC[C@H](NC(=O)c2cc3ccccc3[nH]2)CC1` (relative stereo): the Ki on D(1A) dopamine receptor [1] is above 100 µM; on Mu-type opioid receptor [3], 21.9 µM. Moreover, on D(1A) dopamine receptor [2], the inhibition was below 50%.

Turning to `O=C(NCCCCN1CCO[C@H]2c3cc(O)ccc3OC[C@@H]21)c1cc2ccccc2[nH]1` (relative stereo), the Ki on D(2) dopamine receptor was 5.88 µM; at D(1A) dopamine receptor [1] it was above 100 µM; at Mu-type opioid receptor [3], 12.4 µM; at D(3) dopamine receptor, 5.54 µM. At D(1A) dopamine receptor [2], this molecule registered an inhibition below 50%.

Take `O=C(NCCCCN1CCO[C@@H]2c3cc(O)ccc3OC[C@@H]21)c1cc2ccccc2[nH]1` (relative stereo): the Ki at D(2) dopamine receptor was 9.42 µM; on D(1A) dopamine receptor [1], above 100 µM; at Mu-type opioid receptor [3], 12.3 µM; at D(3) dopamine receptor, 13.8 µM. The molecule further showed an inhibition on D(1A) dopamine receptor [2] below 50%.
